Reference: patent US12527801B2, “Cell activator of animal cell” (Vitamin C60 BioResearch Corporation, priority 2019, dated 2026)

Key:
[1] = test system: reconstructed human epidermis (RhE) model (SkinEthic-RHE); experiment: Skin irritation test, reconstructed human epidermis model, MTT cell viability; format: cell-based
Description: A skin irritation test was performed in accordance with OECD Test Guidelines (No. 439), and SKINETHIC SKIN IRRITATION TEST, which is a TEST METHOD FOR THE PREDICTION OF ACUTE SKIN IRRITATION OF CHEMICALS and is a protocol published by the European Centre for the Validation of Alternative Methods (ECVAM). […] The cell viability of the RhE model was measured by an MTT method. In the MTT method, the cell viability is measured by quantitatively determining blue formazan utilizing a property that MTT (3-(4,5-dimethylthiazol-2-yl)-2,5-diphenyltetrazolium bromide, thiazolyl blue), which is a vital staining dye, is reduced to blue formazan by enzymatic reaction of viable cells. […]
After exposing the test sample for 42 minutes, the test sample was immediately removed from the epidermis model by a washing operation and cultured in fresh growth medium for an additional 42 hours. […] Thereafter, the epidermis model was immersed in isopropanol for 2 hours to extract blue formazan in the epidermis model, and the absorbance at 570 nm of the extraction liquid was measured with a microplate reader. The same treatment was performed on the epidermis model exposed to the negative control and the positive control to measure the absorbance. […]

[2] = Test of long-term continuous use (double blind, half face): water content of keratin and TEWL; format: in vivo, human; conditions: conclusion from 8-week use of toner with 0.1% by weight AOH
Description: A test of long-term continuous use (double blind test) was performed using a toner (toner B) comprising 0.1% by weight of AOH of Example 4 and a placebo toner (toner A) having the same composition as that of the toner of Example 4 except that AOH was not comprised to perform evaluation of the water content of keratin and the transepidermal water loss (TEWL). 22 test subjects (females, average age 48.4±4.68 years old) were asked to apply the toner A on the half face and the toner B on the other half face after washing their faces twice in the morning and evening, and this was continued for 8 weeks. The water content of keratin and the TEWL were measured at the start of the test, after 4 weeks, and after 8 weeks. The water content of stratum corneum and the TEWL on the left and right cheek portions of the test subjects were measured using each of SKICON-200EX (Yayoi Co., Ltd.) and Cyclone Moisture Evaporator AS-CT1 (ASCH Japan Co., Ltd.). Analysis of test results was performed on 20 subjects as effective test subjects excluding 2 test subjects whose left-right difference in the water content of keratin at the start of the test was 150 μS or more.

Question: Which results are given for `O=c1[nH]c2nn[nH]c(=O)c2[nH]1` [AOH, 3H-imidazo[4,5-d][1,2,3]triazine-4,6(5H,7H)-dione]?
Answer: cell viability of the skin model ([1]; 42 min exposure, 42 h post-culture, MTT, PBS (−) negative control as 100%): 100%; skin irritation determination ([1]; RhE model, OECD TG 439): non-irritating; moisturizing effect on the skin [2]: has the moisturizing effect on the skin
